The values below come from patent publication US20130331610A1, “Halogenated Pyrazolo[1,5-A]Pyrimidines, Processes, Uses, Compositions and Intermediates” (priority 2005, published 2013).

The test system of one data set is motor activity of mice. As to the kind of experiment: In vivo predictive sedation-hypnosis test in mice (inhibition of traveled distance). Set-up: species or system mouse. The note with it: Mus musculus; ip, 98 μmol/kg, mice; read-out: % Inhib motor activity. On the procedure:
2—In Vivo Determination of Predictive Sedative-Hypnotic Action
The in vivo effects of these compounds were assessed by a predictive sedation-hypnosis test in mice (D. J. Sanger et al., Eur. J. Pharmacol., 313, 35-42, 1996; and G. Griebel et al., Psychopharmacology, 146, 205-213, 1999).
Groups of 5-8 male CD1 mice, weighing 22-26 g at the time of testing, were used. The test compounds were administered in single equimolecular intraperitoneal doses, suspended in 0.25% agar with one drop of Tween 80 in a volume of 10 ml/kg. Two doses were tested in each route. Control animals received the vehicle alone. Using a Smart System (Panlab, S. L., Spain) the traveled distance in cm was recorded for each mouse at 5-min intervals during a period of 30 minutes after intraperitoneal (ip) dosing and 60 minutes after oral (po) dosing. The inhibition percentage of traveled distance of treated animals versus control animals (the first 5 min were discarded) was calculated.

For a further data set, the system named is HepG2 cells. As to the kind of experiment: In vitro cell toxicity in HepG2 at 24 h (MTS). The class given is cell-based, human. As for the experimental part: In Vitro Determination of Cell Toxicity in HepG2 at 24 h
HepG2 cells (human hepatocellular carcinoma) were obtained from the American Type Culture Collection (ATCC) and cultured in Eagle's Minimum Essential Medium (Eagle) with Earle's balanced salt solution adjusted to contain 1.87 mM Glutamax™ I, 0.1 mM non-essential amino acids, 1.0 mM sodium pyruvate, 100000 U/L penicillin, 10000 μg/L streptomycin 90%; fetal bovine serum, 10%. Promega CellTiter 96® Aqueous Non-Radioactive Cell Viability Assay contains the tetrazolium compound [3-(4,5-dimethylthiazol-2-yl)-5-(3-carboxymethoxyphenyl)-2-(4-sulfophenyl)-2H-tetrazolium, inner salt (MTS). The conversion of MTS into the aqueous soluble formazan product is accomplished by dehydrogenase enzymes found in metabolically active cells. The quantity of formazan product is directly proportional to the number of living cells in culture.
Compounds were dissolved in DMSO to achieve an initial concentration of 100 mM. Serial dilutions were made from this stock solution into DMSO to achieve concentrations of 10, 1, 0.1 and 0.01 mM. The stock solution and serial dilutions were then diluted 1:100 with cell culture medium to obtain […] final assay concentrations of […]. The final DMSO concentration in all wells was 1% v/v. HepG2 cells were incubated with test compounds for 24 hours. Relative cell viability was determined spectrophotometrically at 490 nm following the addition of the MTS dye and further one-hour incubation. Tamoxifen was used as the positive control.
The percent absorbance of the samples treated with the test article was compared to the untreated sample to calculate the percentage of control.

Data set [1] addresses α1 subunit of GABAA receptor (Rattus norvegicus, UniProt P18508+P62813). In words: biochemical. An excerpt:
% specific binding=(X−N/T−N)×100

For data set [2], the target named is α2 subunit of GABAA receptor (Rattus norvegicus, UniProt P18508+P23576). As to the kind of experiment: biochemical.
α2 subunit of GABAA receptor, sequence (P23576 29-451): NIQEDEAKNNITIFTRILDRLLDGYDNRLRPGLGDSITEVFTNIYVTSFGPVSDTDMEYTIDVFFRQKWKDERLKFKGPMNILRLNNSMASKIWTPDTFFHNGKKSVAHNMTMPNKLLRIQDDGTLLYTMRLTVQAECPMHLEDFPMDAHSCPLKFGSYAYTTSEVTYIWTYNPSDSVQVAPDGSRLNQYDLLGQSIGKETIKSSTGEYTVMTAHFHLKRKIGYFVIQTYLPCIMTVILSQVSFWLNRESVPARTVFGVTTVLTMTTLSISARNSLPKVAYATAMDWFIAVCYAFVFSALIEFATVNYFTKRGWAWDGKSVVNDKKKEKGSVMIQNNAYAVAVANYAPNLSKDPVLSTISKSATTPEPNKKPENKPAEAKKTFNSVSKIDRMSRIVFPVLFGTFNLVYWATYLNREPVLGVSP
α2 subunit of GABAA receptor, sequence (P18508 39-466): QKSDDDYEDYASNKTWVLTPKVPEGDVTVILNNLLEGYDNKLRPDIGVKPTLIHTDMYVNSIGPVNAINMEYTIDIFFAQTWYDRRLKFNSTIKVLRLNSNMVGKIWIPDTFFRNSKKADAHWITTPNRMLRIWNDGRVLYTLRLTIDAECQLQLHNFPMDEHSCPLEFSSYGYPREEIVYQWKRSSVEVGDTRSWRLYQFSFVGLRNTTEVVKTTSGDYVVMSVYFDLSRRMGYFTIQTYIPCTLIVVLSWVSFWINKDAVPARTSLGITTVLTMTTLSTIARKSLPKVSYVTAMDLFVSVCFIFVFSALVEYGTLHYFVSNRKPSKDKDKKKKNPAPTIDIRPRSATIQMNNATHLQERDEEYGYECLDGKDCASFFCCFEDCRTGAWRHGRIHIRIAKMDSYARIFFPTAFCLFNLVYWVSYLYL
α2 subunit of GABAA receptor, sequence (P63079 26-473 partner): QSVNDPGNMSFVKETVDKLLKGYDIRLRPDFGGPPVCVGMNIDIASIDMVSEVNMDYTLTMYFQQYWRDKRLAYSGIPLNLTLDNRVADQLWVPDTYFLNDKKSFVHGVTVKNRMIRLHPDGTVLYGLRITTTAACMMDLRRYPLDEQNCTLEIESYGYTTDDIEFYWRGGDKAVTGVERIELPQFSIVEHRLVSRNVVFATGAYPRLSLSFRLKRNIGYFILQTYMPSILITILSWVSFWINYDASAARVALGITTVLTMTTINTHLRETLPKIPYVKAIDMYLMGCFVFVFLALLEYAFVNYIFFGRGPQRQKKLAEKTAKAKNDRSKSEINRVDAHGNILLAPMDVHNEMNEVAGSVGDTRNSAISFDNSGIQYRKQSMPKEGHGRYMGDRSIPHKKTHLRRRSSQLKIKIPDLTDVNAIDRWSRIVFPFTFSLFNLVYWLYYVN
Method: Determination of the Affinity of Test Compounds for α1- and α2-GABAA Receptor
Male Sprague-Dawley rats weighing 200-250 g at the time of experiment were used. After decapitation, the cerebellum (tissue that mostly contains α1-GABAA receptor) and spinal cord (tissue that mostly contains α2-GABAA receptor) were removed. […] Once the tissues weighed, they were suspended in 50 mM Tris.HCl (pH 7.4), 1:40 (v/v), or sucrose 0.32 M in the case of spinal cord, homogenized and then centrifuged at 20000 g for 10 min at 7° C. The resulting pellet was resuspended under the same conditions and centrifuged again. The pellet was finally resuspended on a minimum volume and kept at −80° C. overnight. On the next day, the process was repeated until the final pellet was resuspended at a ratio of 1:10 (v/v) in the case of cerebellum and at a ratio of 1:5 (v/v) in the case of spinal cord.
Affinity was determined by competitive tests using radiolabeled flumazenil as ligand. […] Simultaneously, the membranes were only incubated with the radiolabeled flumazenil (total binding, 100%) and in the presence of an elevated concentration of unradiolabeled flumazenil (non-specific binding, % estimation of radiolabeled ligand). The reactions started on adding the radiolabeled ligand followed by incubation for 60 minutes at 4° C. At the end of the incubation period, 200 μl of reaction were transferred to a multiscreen plate (Millipore) and filtered using a vacuum manifold and then washed three times with cold test buffer. The multiscreen plates were equipped with a GF/B filter that retained the membranes containing the receptors and the radiolabeled ligand which had been bound to the receptors. After washing, the plates were left till dry. Once dried, scintillation liquid was added and left under stirring overnight. The next day the plates were counted using a Perkin-Elmer Microbeta scintillation counter.
where, X: amount of bound ligand for every concentration of compound. T: total binding, maximum amount bound to the radiolabeled ligand. N: non-specific binding, amount of radiolabeled ligand bound in a non-specific way irrespective of the receptor used.
Every concentrations of each compound were tested in triplicate and their mean values were used to determine the experimental values of % specific binding versus the concentration of compound.

α1 subunit of GABAA receptor, sequence (P62813 28-455): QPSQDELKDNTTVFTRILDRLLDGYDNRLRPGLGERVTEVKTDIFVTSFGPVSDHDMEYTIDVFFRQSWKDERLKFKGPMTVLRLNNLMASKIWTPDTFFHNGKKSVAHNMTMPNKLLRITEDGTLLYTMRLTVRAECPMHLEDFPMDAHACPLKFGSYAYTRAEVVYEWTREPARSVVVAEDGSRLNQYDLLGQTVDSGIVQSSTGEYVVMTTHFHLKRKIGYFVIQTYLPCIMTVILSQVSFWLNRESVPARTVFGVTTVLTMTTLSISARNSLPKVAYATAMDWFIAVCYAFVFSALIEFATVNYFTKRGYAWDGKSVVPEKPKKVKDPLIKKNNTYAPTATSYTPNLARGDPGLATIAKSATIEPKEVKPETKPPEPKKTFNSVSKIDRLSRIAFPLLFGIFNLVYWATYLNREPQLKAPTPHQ
α1 subunit of GABAA receptor, sequence (P18508 39-466): as the sequence (P18508 39-466) above
α1 subunit of GABAA receptor, sequence (P63138 26-474 partner): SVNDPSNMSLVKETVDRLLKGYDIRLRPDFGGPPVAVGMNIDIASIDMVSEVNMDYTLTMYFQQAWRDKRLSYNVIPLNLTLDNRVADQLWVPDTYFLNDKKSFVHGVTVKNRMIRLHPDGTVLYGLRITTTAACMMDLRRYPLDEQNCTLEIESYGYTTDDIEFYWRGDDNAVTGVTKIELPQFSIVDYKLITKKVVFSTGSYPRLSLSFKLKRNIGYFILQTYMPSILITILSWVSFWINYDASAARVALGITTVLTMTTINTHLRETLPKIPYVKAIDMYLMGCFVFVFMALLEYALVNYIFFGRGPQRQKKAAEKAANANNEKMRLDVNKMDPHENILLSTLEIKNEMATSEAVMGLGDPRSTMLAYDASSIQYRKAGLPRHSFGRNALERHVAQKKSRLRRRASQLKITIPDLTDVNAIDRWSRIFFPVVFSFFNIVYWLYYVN

As a reminder, the melting point is the temperature of the solid-liquid transition. Take `CN(c1cc(-c2ccnc3c(C(=O)c4cccs4)cnn23)ccc1Cl)S(C)(=O)=O` [Preparative example 8, N-{2-Chloro-5-[3-(thiophene-2-carbonyl)-pyrazolo[1,5-a]pyrimidin-7-yl]-phenyl}-N-methyl-methanesulfonamide]: the melting point lay in the range of 241 to 243 °C. The inhibition in vivo at 98 µmol/kg with motor activity of mice is 78.3%. Also, the “cell toxicity in HepG2, percentage of control (relative cell viability)” value in the data set with HepG2 cells (100 μM, 24 h, MTS) was found to be 75.39%. Besides, the “cytotoxicity compared with prior art compounds” value in the data set on HepG2 cells (HepG2, 24 h) is “less cytotoxicity than prior art compounds”. Further, the inhibition at 10 µM in data set [1] (read-out: % Inhib 10^−5 M) was determined as 93.8%. Further, the inhibition at 0.1 µM in data set [1] (read-out: % Inhib 10^−7 M) worked out at 40.9%. The inhibition at 10 µM in data set [2] (read-out: % Inhib 10^−5 M) was 68.9%. The inhibition at 0.1 µM in data set [2] (read-out: % Inhib 10^−7 M) came to 0%.
